Tests used:
[1] = system: colon adenocarcinoma cell line, MC38; assay: Efficacy study in MC38 syngeneic mice, tumor growth inhibition; type: in vivo, mouse; settings: doses per Table 5 (Anti-PD-1 200 ug IP BIWx3, by day 9; Perturbagen 1 10 mg/kg IP QDx10), Table 3 numbering
[2] = system: CD8+ T cells derived from tumors; assay: Flow cytometry of tumor infiltrating T lymphocytes, MC38 syngeneic mouse model; type: in vivo; settings: MC38 mice, day after final dose, doses per Table 5, Table 3 numbering
Source text: (§1) The day after the final dose, mice were euthanized, blood was collected by cardiac puncture and the tumors were removed. For all mice, a section of tumor was flash frozen in liquid nitrogen and stored at −80 degrees C. for future analysis; the remainder of the tumor was placed in cold RPMI (with glucose) and processed to generate a single cell suspension for flow cytometry. For a pre-selected subgroup of mice, a sample of the single cell suspension was collected for scRNAseq (3 samples from 5 treatment groups provided 15 samples for 2 runs on a 10× Chromium box). Each tumor was minced with a clean razor blade to the consistency of chopped garlic. The tumor was placed in a digestive enzyme mix (mouse tumor dissociation kit, Miltenyi) and incubated on a dissociator at 37 degrees C. for 45 min (OctoMax). Following dissociation, the slurry was filtered through a 70 μm nylon filter, centrifuged, and the pellet resuspended in Ammonium-Chloride-Potassium (ACK) lysing buffer for 3 minutes to lyse red blood cells. The ACK buffer was neutralized with 10-fold excess PBS and then the cell suspension was centrifuged to concentrate the cells. Cell suspensions from all tumors were stored on ice until analyzed by flow cytometry.
For flow cytometry, samples of each cell suspension were incubated at room temperature for one hour with an antibody panel optimized for detection of effector and exhausted T cells (Tables 6 and 7). Prior to intracellular staining, samples were permeabilized and fixed using the eBioscience™ Foxp3 Transcription Factor Staining Buffer Set (ThermoFisher) according to the manufacturer's recommendations. Samples were then incubated for one hour with the intracellular staining mix, then centrifuged and resuspended for flow cytometric analysis. Following compensation measurements using commercial beads, fluorescence minus one (fmo) measurements were performed followed by measurements of all the samples. For each sample, at least 100,000 events were recorded. All analysis for flow cytometry data was performed using FlowJo™ (BD).

T cells = assay: scRNAseq analysis of MC38 tumor single cell suspensions; type: in vivo; settings: MC38 syngeneic mouse, versus PBS
Source text: as §1
As detailed above, 15 samples of tumor single cell suspension were obtained for single cell RNA sequencing (Table 8). […]

## pembrolizumab
[1]
  Tumor growth inhibition (TGI): significant tumor growth inhibition
[2]
  Expression of PD-1 in CD8+ T cells derived from tumors: reduced
  Expression of TIGIT in CD8+ T cells derived from tumors: reduced
  Number of CD8+ T cells in the tumor: increased
T cells
  Density of T cells in scRNAseq manifold: enhanced

Source: patent US20240424022A1, “IN VIVO AND EX VIVO METHODS OF MODULATING T CELL EXHAUSTION/DE-EXHAUSTION” (Flagship Pioneering Innovations VI, LLC, priority 2021, published 2024)
